Patent US10208033B2, “β-carboline, dihydro-β-carboline and tetrahydro-β-carboline alkaloid derivatives and preparation methods same and use in aspects of preventing and treating plant viruses, fungicides and insecticides” (NANKAI UNIVERSITY, priority 2013, dated 2019)
Like-named read-outs stand apart in the source and are kept apart here.

How the values were obtained:
Macrophoma kawatsukai = experiment: Fungicidal (bactericidal) activity in vitro, PDA colony diameter; format: cell-based; details: 50 mg/kg
Fusarium fujikuroi = experiment: as above; format: cell-based; details: 50 mg/kg
cucumber fusarium wilt = experiment: as above; format: cell-based
[1] = test system: tobacco mosaic virus (TMV); experiment: Anti-TMV in vivo therapeutic effect; design: species or system tobacco mosaic virus (host Nicotiana tabacum L.cv.Xanthi NN)
Alternaria solani = experiment: Fungicidal (bactericidal) activity in vitro, PDA colony diameter; format: cell-based; details: 50 mg/kg
armyworms = format: in vivo; details: concentration 600 mg/kg
[2] = test system: Colletotrichum orbiculare; experiment: Fungicidal (bactericidal) activity in vitro, PDA colony diameter; format: cell-based; details: 50 mg/kg
Rhizoctonia solani = experiment: Fungicidal (bactericidal) activity in vitro, PDA colony diameter; format: cell-based; details: 50 mg/kg
[3] = test system: tobacco mosaic virus (TMV); experiment: Anti-TMV in vitro effect (half-leaf soaking); format: cell-based, tobacco mosaic virus (host Nicotiana tabacum L.cv.Xanthi NN)
Botrytis cinerea = experiment: Fungicidal (bactericidal) activity in vitro, PDA colony diameter; format: cell-based; details: 50 mg/kg
[4] = test system: tobacco mosaic virus (TMV); experiment: Anti-TMV in vivo protective effect; design: species or system tobacco mosaic virus (host Nicotiana tabacum L.cv.Xanthi NN)
Fusarium graminearumt = experiment: microbe, parasite or virus in culture; format: cell-based; details: 50 mg/kg
Bipolaria maydis = experiment: organism not typed; format: cell-based; details: 50 mg/kg
Sclerotinia scleotiorum = experiment: Fungicidal (bactericidal) activity in vitro, PDA colony diameter; format: cell-based; details: 50 mg/kg
cotton bollworms = experiment: whole plant or invertebrate
Procedure: Experimental method of cotton bollworms: feed and drug mixing method: measure 3 mL of prepared solution and add it to about 27 g of newly prepared feed, thereby obtaining needed concentration through dilution by 10 times.

potato late blight = experiment: microbe, parasite or virus in culture; format: cell-based
Cercospora arachidicola = experiment: Fungicidal (bactericidal) activity in vitro, PDA colony diameter; format: cell-based; details: 50 mg/kg
Phytophthora capsici = experiment: as above; format: cell-based; details: 50 mg/kg
Rhizoctonia cereali = experiment: as above; format: cell-based; details: 50 mg/kg
[5] = test system: tobacco mosaic virus (TMV); experiment: Anti-TMV in vivo inactivation; design: species or system tobacco mosaic virus (host Nicotiana tabacum L.cv.Xanthi NN)
mosquito larvae = experiment: whole plant or invertebrate
In short: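 Early fourth-instar Culex pipiens pallens larvae from an indoor colony, 10 per beaker, exposed to test compound at 5 ppm in water, diluted from a 1000 ppm acetone mother solution. Blank: water containing 0.5 mL test solvent.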

SMILES	Bactericidal activity (%) Macrophoma kawatsukai (Macrophoma kawatsukai)	Bactericidal activity (%) Fusarium fujikuroi (Fusarium fujikuroi)	Relative inhibition rate (%) In vivo therapy ([1]; treatment dose 100 μg/mL)	Relative inhibition rate (%) In vivo therapy ([1]; treatment dose 500 μg/mL)	Bactericidal activity (%) Alternaria solani (Alternaria solani)	Armyworm Mortality (%) (armyworms)	Bactericidal activity (%) Colletotrichum orbiculare [2]	Bactericidal activity (%) Rhizoctonia solani (Rhizoctonia solani)	Relative inhibition rate (%) In vitro activity ([3]; treatment dose 100 μg/mL)	Relative inhibition rate (%) In vitro activity ([3]; treatment dose 500 μg/mL)	Bactericidal activity (%) Botrytis cinerea (Botrytis cinerea)	Relative inhibition rate (%) In vivo protection ([4]; treatment dose 100 μg/mL)	Relative inhibition rate (%) In vivo protection ([4]; treatment dose 500 μg/mL)	Bactericidal activity (%) Fusarium graminearumt (Fusarium graminearumt)	Bactericidal activity (%) Bipolaria maydis (Bipolaria maydis)	Bactericidal activity (%) Sclerotinia scleotiorum (Sclerotinia scleotiorum)	Bactericidal activity (%) potato late blight (potato late blight)	Bactericidal activity (%) Cercospora arachidicola (Cercospora arachidicola)	Bactericidal activity (%) Phytophthora capsici (Phytophthora capsici)	Bactericidal activity (%) Rhizoctonia cereali (Rhizoctonia cereali)	other results
C[C@@H]1N[C@H](C(=O)NN=Cc2ccncc2)Cc2c1[nH]c1ccccc21 [Ic-15, (1S, 3S)—N′-(pyridine-4-methylene)-1-methyl-2,3,4,9-tetrahydropyridino [3,4-b] indol-3-formylhydrazine]	52.8%	21.4%	12.9%	39.6%	15.0%	15%	29.6%	23.7%	0%	36.6%	36.4%	0%	37.5%	27.6%	28.0%	64.7%	24.0%	35.3%	28.9%	66.7%	Bactericidal activity (%) Cucumber fusarium wilt (cucumber fusarium wilt; 50 mg/kg): 23.1%; Corn borer Mortality (%) (corn borers; in vivo): 20%; Cotton bollworm Mortality (%) (cotton bollworms; in vivo): 15%; Relative inhibition rate (%) In vivo inactivation ([5]; treatment dose 100 μg/mL): 8.8%; Relative inhibition rate (%) In vivo inactivation ([5]; treatment dose 500 μg/mL): 43.4%; Mosquito larvae Mortality (%) (mosquito larvae; in vivo): 30%
C[C@@H]1N[C@H](C(=O)NN=Cc2cccnc2)Cc2c1[nH]c1ccccc21 [Ic-16, (1S, 3S)—N′-(pyridine-3-methylene)-1-methyl-2,3,4,9-tetrahydropyridino [3,4-b] indol-3-formylhydrazine]	83.3%	50.0%	5.7%	36.9%	15.0%	20%	40.7%	39.5%	0%	33.3%	54.5%	0%	33.6%	62.1%	32.0%	35.3%	52.0%	41.2%	26.3%	80.4%	Bactericidal activity (%) Cucumber fusarium wilt (cucumber fusarium wilt; 50 mg/kg): 38.5%; Corn borer Mortality (%) (corn borers; in vivo): 30%; Cotton bollworm Mortality (%) (cotton bollworms; in vivo): 10%; Relative inhibition rate (%) In vivo inactivation ([5]; treatment dose 100 μg/mL): 11.2%; Relative inhibition rate (%) In vivo inactivation ([5]; treatment dose 500 μg/mL): 41%; Mosquito larvae Mortality (%) (mosquito larvae; in vivo): 40%
C[C@@H]1N[C@H](C(=O)NN=Cc2ccccn2)Cc2c1[nH]c1ccccc21 [Ic-17, (1S, 3S)—N′-(pyridine-2-methylene)-1-methyl-2,3,4,9-tetrahydropyridino [3,4-b] indol-3-formylhydrazine]	75.0%	21.4%	0%	36.8%	20.0%	25%	25.9%	21.1%	0%	32.7%	36.4%	0%	31.4%	20.7%	16.0%	5.9%	12.0%	23.5%	18.4%	41.2%	Bactericidal activity (%) Cucumber fusarium wilt (cucumber fusarium wilt; 50 mg/kg): 23.1%; Corn borer Mortality (%) (corn borers; in vivo): 20%; Cotton bollworm Mortality (%) (cotton bollworms; in vivo): 20%; Relative inhibition rate (%) In vivo inactivation ([5]; treatment dose 100 μg/mL): 9.2%; Relative inhibition rate (%) In vivo inactivation ([5]; treatment dose 500 μg/mL): 38.9%; Mosquito larvae Mortality (%) (mosquito larvae; in vivo): 50%
C[C@@H]1N[C@H](C(=O)NN=Cc2ccco2)Cc2c1[nH]c1ccccc21 [Ic-18, (1S, 3S)—N′-(furan-2-methylene)-1-methyl-2,3,4,9-tetrahydropyridino [3,4-b] indol-3-formylhydrazine]	69.4%	28.6%	9.3%	44.2%	35.0%	10%	33.3%	32.9%	15.4%	48.8%	81.8%	11.5%	47.5%	6.9%	20.0%	64.7%	36.0%	52.9%	39.5%	68.6%	Bactericidal activity (%) Cucumber fusarium wilt (cucumber fusarium wilt): 11.5%; Corn borer Mortality (%) (corn borers; concentration 600 mg/kg): 15%; Cotton bollworm Mortality (%) (cotton bollworms; concentration 600 mg/kg): 20%; Relative inhibition rate (%) In vivo inactivation ([5]; treatment dose 100 μg/mL): 18.2%; Relative inhibition rate (%) In vivo inactivation ([5]; treatment dose 500 μg/mL): 54.6%; Mosquito larvae Mortality (%) (mosquito larvae; concentration 10 mg/kg, 24 h): 25%
